Assay results published in patent US6664235B1, “Medicaments comprising sialic acid derivatives as active ingredients” (priority 1999, dated 2003).
Like-named read-outs stand apart in the source and are kept apart here.

Key:
[1] = Test of resistance to acid hydrolysis (1H NMR); conditions: for half-life: 1.0 N D2SO4/D2O, pH 1.37
[2] = biological target: Clostridium perfringens sialidase (Clostridium perfringens, UniProt A0A0H2YQR1); assay type: biochemical
[3] = system: influenza virus A/Aichi/2/68 (H3N2); assay type: binding
[4] = system: influenza virus A/PR/8/34 (H1N1) hemagglutinin; test: Hemagglutination inhibitory assay with human erythrocytes; assay type: cell-based; conditions: lowest concentration that completely inhibited agglutination; viruses 2^4 HA units, 4° C., 1 hour
[5] = system: sialidase of influenza virus A/Singapore/1/57 (H2N2); assay type: biochemical, human isolate; conditions: read-out: Inhibitory activity (IC50, μM) 4-MU-Neu5Ac as substrate
[6] = system: sialidase of influenza virus A/Aichi/2/68 (H3N2); assay type: biochemical, human isolate
[7] = system: sialidase of influenza virus A/duck/36/4/76 (H1N1); assay type: biochemical, avian isolate; conditions: read-out: Inhibitory activity (IC50, μM) 4-MU-Neu5Ac as substrate
[8] = system: sialidase of influenza virus A/duck/849/3/80 (H4N1); assay type: biochemical, avian isolate
[9] = system: sialidase of influenza virus A/duck/13/2/76 (H6N1); assay type: biochemical, avian isolate
[10] = system: sialidase of influenza virus A/duck/33/3/76 (H10N1); assay type: biochemical, avian isolate
[11] = system: sialidase of influenza virus A/duck/273/8/78 (H2N2); assay type: biochemical, avian isolate
[12] = system: sialidase of influenza virus A/duck/24/5/76 (H3N2); assay type: biochemical, avian isolate
[13] = system: sialidase of influenza virus A/duck/47/5/76 (H7N2); assay type: biochemical, avian isolate
[14] = system: sialidase of influenza virus A/duck/86/1/76 (H9N2); assay type: biochemical, avian isolate
[15] = system: sialidase of influenza virus A/duck/44/3/76 (H11N3); assay type: biochemical, avian isolate
[16] = system: sialidase of influenza virus A/duck/862/5/80 (H12N5); assay type: biochemical, avian isolate
[17] = system: sialidase of influenza virus A/swine/Hokkaido/2/81 (H1N1); assay type: biochemical, swine isolate; conditions: read-out: Inhibitory activity (IC50, μM) Neu5Ac-DSPE as substrate
[18] = system: sialidase of influenza virus A/swine/Italy/309/83 (H3N2); assay type: biochemical, swine isolate
[19] = system: influenza virus A/Aichi/2/68 (H3N2) strain; test: Inhibition of infection of influenza virus to MDCK cells (LDH release, cytopathic effect); assay type: cell-based; conditions: LDH released from infected cells
[20] = system: influenza virus A/Aichi/2/68 (H3N2) strain; assay type: cell-based; conditions: read-out: IC50, early stage of infection
[21] = system: influenza virus A/Aichi/2/68 (H3N2) strain; assay type: cell-based; conditions: read-out: IC50 of prevention of cytopathic effects, late stage
[22] = biological target: sialidase of influenza virus A/PR/8/34 (H1N1) (Influenza A virus, UniProt P03468)
[23] = read-out: Inhibitory activity (IC50, μM) 4-MU-Neu5Ac as substrate
[24] = read-out: Inhibitory activity (IC50, μM) Neu5Ac-DSPE as substrate

CC(=O)NC1C(O)CC(Oc2ccc([N+](=O)[O-])cc2)(C(=O)O)OC1C(O)C(O)CO (centres unmarked) [Compound 2]
Hydrolysis T½ (hour) 1N sulfuric acid 50° C. ([1]; 1N sulfuric acid, 50° C.): 0.15 h

CC(=O)NC1C(O)C(O)C(Oc2ccc([N+](=O)[O-])cc2)(C(=O)O)OC1C(O)C(O)CO (centres unmarked) [Compound 3]
Ki (M) NA (C. perfringens) [2]: Very weak | half-life [1]: 23 h

CC(=O)NC1C(O)C(F)C(Oc2ccc([N+](=O)[O-])cc2)(C(=O)O)OC1C(O)C(O)CO (centres unmarked) [Compound 5]
half-life [1]: 48 h

CCCCCCCCCCCCCCCCCC(=O)CC(COC(=O)CCCCCCCCCCCCCCCCC)COP(=O)(O)OCCNCCOC1(C(=O)O)CC(O)C(NC(C)=O)C(C(O)C(O)CO)O1 (centres unmarked) [Compound 6]
Binding assay (%) H3N2 [3]: 25% | HAI (M) H1N1 [4]: 0.001 M

CCCCCCCCCCCCCCCCCC(=O)CC(COC(=O)CCCCCCCCCCCCCCCCC)COP(=O)(O)OCCNCCOC1(C(=O)O)OC(C(O)C(O)CO)C(NC(C)=O)C(O)C1O (centres unmarked) [Compound 7]
affinity to H3 type virus HA relative to Compound 6 [3]: 144% | HAI (M) H1N1 [4]: 0.001 M

CCCCCCCCCCCCCCCCCC(=O)CC(COC(=O)CCCCCCCCCCCCCCCCC)COP(=O)(O)OCCNCCOC1(C(=O)O)OC(C(O)C(O)CO)C(NC(C)=O)C(O)C1O (centres unmarked) [Compound 8]
HAI (M) H1N1 [4]: >0.001 M

CCCCCCCCCCCCCCCCCC(=O)CC(COC(=O)CCCCCCCCCCCCCCCCC)COP(=O)(O)OCCNCCOC1(C(=O)O)OC(C(O)C(O)CO)C(NC(C)=O)C(O)C1F (centres unmarked) [Compound 9]
IC50 [5]: 15.6 µM | virus sialidase activity inhibition [6]: completely inhibited | IC50 [6, 23]: 31.3 µM | IC50 [6, 24]: 31.3 µM | IC50 [7]: 125 µM | IC50 [8, 23]: 125 µM | IC50 [8, 24]: 125 µM | IC50 [9, 23]: 150 µM | IC50 [9, 24]: 180 µM | IC50 [10, 23]: 500 µM | IC50 [10, 24]: 250 µM | IC50 [11, 23]: 150 µM | IC50 [11, 24]: 125 µM | IC50 [12, 23]: 180 µM | IC50 [12, 24]: 100 µM | IC50 [13, 23]: 200 µM | IC50 [13, 24]: 150 µM | IC50 [14, 23]: 180 µM | IC50 [14, 24]: 125 µM | IC50 [15, 23]: 250 µM | IC50 [15, 24]: 75 µM | IC50 [16, 23]: 125 µM | IC50 [16, 24]: 100 µM | IC50 [17]: 125 µM | IC50 [18, 23]: 125 µM | IC50 [18, 24]: 150 µM | HAI (M) H1N1 [4]: 0.001 M | IC50 [19]: 5.6 µM | IC50 [20]: 14 µM | IC50 [21]: ~40 µM | virus sialidase activity inhibition [22]: completely inhibited | IC50 [22, 24]: 31.3 µM
